Laboratory results from US9164103B2, “Monitoring and inhibiting human immunodeficiency virus infection by modulating HMGB1 dependent triggering of HIV-1 replication and persistence” (priority 2008, dated 2015).

Experiments:
iDCs = test: aNK-induced apoptosis of uninfected iDCs (7-AAD assay, NK:DC 5:1); type: cell-based, human; conditions: NK:DC ratio 5:1, 24 h
Procedure: FIGS. 9(a)-(g). aNK-dependent apoptosis of iDCs is TNF-related apoptosis-inducing ligand (TRAIL)-dependent and involves the DR4 receptor. (a) CD56^+ NK cells were purified from the blood of healthy donors. NK cells were maintained in culture with suboptimal concentrations of interleukin-2 (IL-2) (100 ng/ml) (rNK cells) or activated (aNK cells) by the addition PHA (10 μg/ml) and IL-2 (10 μg/ml) to cultures. The intensity of staining with anti-CD56 antibodies allows the distinction between two NK cell populations expressing CD56 highly (CD56^bright cells) and weakly (CD56^dim cells). Data represent the mean±sd of three independent experiments. (b) Membrane TRAIL (mTRAIL) expression by NK cells is determined by flow cytometry with anti-CD56 and -mTRAIL specific antibodies. Data represent one of three independent experiments. […] The proportions of mTRAIL-expressing aNK cells among CD56^bright and CD56^dim populations were determined. […] DR4 expression at the DCs surface is analyzed after 1, 2, 3.5, 6 and 24 h of NK-DC coculture. […] Cell death was then quantified with the 7-AAD assay. […] (f) 24 h cell-free culture supernatants of iDCs, rNK cells, aNK cells (10^6/ml), or cocultures of aNK cells and iDCs (ratio 5:1) were tested for soluble TRAIL (sTRAIL) content. sTRAIL was quantified by ELISA. […] The viability status of DCs was determined by flow cytometry with the 7-AAD assay. […]

R5-HIV-1Ba-L = test: HIV-1 replication in infected iDCs (p24 ELISA in culture supernatant); type: cell-based; conditions: for HIV-1 production (p24 in supernatant): 3 days, inhibitor 10 μg/ml
Procedure: FIGS. 6 (a), (b) and (c). Exogenous rh-HMGB1 triggers HIV-1 and HIV-2 replication in iDC. (a) HIV-1-infected iDC were cultured alone or in the presence of aNK cells for 3 days. Rh-HMGB1 (1 μg/ml) was added in some cultures. HIV replication was measured by p24 quantification in culture supernatant (b) HIV1-infected iDC were cultured alone or in the presence of aNK cells for 3 days. Blocking anti-HMGB1 antibodies (10 μg/ml) or glycyrrhizin (10 μg/ml) were added at culture initiation. HIV replication was measured by p24 quantification in culture supernatant. The mean±sd of three independent experiments is shown. Statistical comparisons were made with the non parametric Mann-Whitney test. * p<0.05; (c) HIV-2-infected iDC were cultured alone or in the presence of aNK cells for 3 days. Rh-HMGB1 (1 μg/ml) was added in some cultures. HIV replication was measured by p24 quantification in culture supernatant.
Exogenous HMGB1 was recently reported to increase HIV-1 replication in infected monocytic cell lines38, and to induce in vitro the reactivation of HIV-1 in PBMCs from HIV-1-infected patients under antiretroviral therapy39. Therefore, the question of the role of HMGB1 in the NK-dependent triggering of HIV replication in DCs was addressed. […] To investigate the influence of HMGB1 in the triggering of HIV-1 replication in infected-iDC-aNK cocultures, HMGB1-specific neutralizing antibodies or glycyrrhizin were added to these cocultures and p24 production was measured in the supernatant. […] They also indicate that aNK cell-dependent stimulation of HIV-1 replication in iDCs is mediated by HMGB1.
Virus stock preparation was prepared by amplification of R5-HIV-1Ba-L on MDM from healthy donors. Viral stock was then clarified by centrifugation prior to determination of HIV1 p24 concentration. iDCs were plated in 96-well culture plates at 200,000 cells/well and incubated for 3 hours at 37° C. in a 5% CO2 atmosphere with R5-HIV-1BAL at various concentrations (0.001 to 10 ng p24/ml). Cells were harvested, washed four times with media containing 10% FCS and, when indicated, rNK or aNK cells were added at a NK:DC ratio of 1:5, unless otherwise indicated. NK-DC cocultures lasted 24 h before analysis of the maturation stage of DCs and/or quantification of viral production. In some experiments (FIG. 6), HIV-1 infected iDCs were incubated alone or with aNK cells for 3 days, in the presence of rh-HMGB1 (1 μg/ml) (R&DSystems), and in some cultures in the presence of rabbit antiHMGB1 Abs (10 μg/ml) (Abcam, Cambridge, UK) or Glycyrrhizin (10 μg/ml).
The concentration of HIV-1 in the supernatant of infected cell cultures was determined by measuring the amount of p24 protein by ELISA (Ingen, Belgium). DNA from cells was extracted using the GIAamp DNA Blood Mini Kit (Qiagen, Basel, Switzerland) and quantified HIV-1 proviral load by RT-PCR as described previously54. The frequency of HIV-1-infected cells was determined by flow cytometry to detect intracellular p24 molecule. Cells were surface stained with antibodies specific for CD40 (BD Biosciences, San Jose, Calif.) to target DC and intracellular stained with p24-specific antibodies (Coulter). Stained cells were fixed in 1% PFA, immediately acquired on a FACScalibur (Becton Dickinson) and analyzed with FlowJo software. In some experiments infected DCs were imaged, after immunofluorescence, by laser scanning confocal microscopy.

HIV-1-infected iDCs = test: Apoptosis of HIV-1-infected iDCs (7-AAD assay); type: cell-based, human
Procedure: Living cells are 7-AAA^−, apoptotic cells 7-AAD^+, and apoptotic debris are 7-AAD^−FSC^low. Dot plots represent one of at least three independent experiments. […] Cell death was then quantified with the 7-AAD assay. The mean±sd of three independent experiments was presented.
(a) iDCs or HIV-1-infected iDCs were cultured alone or in the presence of aNK cells (NK:DC ratio of 5:1). […] Cell death was then quantified with the 7-AAD assay. (b) Same experiments were performed in the presence of blocking anti-HMGB1 antibodies (10 and 15 μg/ml). One representative experiment out of three conducted is shown.
Immature DCs (iDCs) were prepared from sorted monocytes from healthy donors, cultured for 6 days in the presence of IL-4 and GM-CSF. In some experiments, iDCs were infected with R5-HIV-1 (1 ng/ml of p24). Coculture experiments with autologous purified aNK cells (activated by PHA+IL-2) were performed at various NK:DC ratios. The influence of NK-DC interaction on DC's maturation and apoptosis was analyzed using multiparametric flow cytometry, combining 7-AAD staining with membrane and intracellular staining with mAbs specific for HLA-DR, DC-SIGN, CD83, CD86, DR4, mTRAIL, etc.
To investigate the impact of HIV on aNK-induced iDCs' apoptosis, iDCs were infected with R5-HIV-1 (1 ng of p24/ml).

[1] = tested on: iDCs cocultured with aNK cells; test: aNK-dependent maturation of uninfected iDCs in aNK-iDC coculture (CD86/HLA-DR flow cytometry); type: cell-based, human; conditions: 24 h aNK-iDC coculture, inhibitor 10 μg/ml added at initiation
Procedure: (a) Left panel: iDCs were cultured for 24 h either alone or with aNK cells, in the presence of blocking anti-HMGB1 antibodies (10 μg/ml) or glycyrrhizin (10 μg/ml). The maturation status of DCs was determined by flow cytometry with CD86 and HLA-DR—specific antibodies. Right panel: same experiment, but performed with HIV-1 infected iDCs. Data represent mean±sd of at least three independent experiments, and statistical comparisons were made with the non parametric Mann-Whitney test. * p<0.05. […] NK cells were excluded from the analysis through the co-staining with CD3- and CD56-specific antibodies (CD3^−CD56^+).
To determine the possible involvement of HMGB1 in NK-dependent DC maturation, glycyrrhizin, which is known to interact specifically with soluble HMGB1 molecule31, was used as well as anti-HMGB1 antibodies (FIG. 3a). […] The possible involvement of RAGE during NK-DC cross-talk was evaluated with the same approach, comparing RAGE expression on DCs cocultured with aNK cells and DC cultured alone.
After 6 days of culture in the presence of IL-4 and GM-CSF, iDCs (10^6 cells/ml) were either non stimulated, or stimulated during 48 h with 10 μg/ml LPS (E. coli serotype 026-B6, Sigma-Aldrich) to obtain DC0 cells, or 500 ng/ml of trimeric CD40L (Sigma-Aldrich) to obtain DC1 cells, or 10 μg/ml of LPS and 1 μg/ml PGE2 (Sigma-Aldrich) to obtain DC2 cells. […]

Molecule: C/C=C/[C@H]1O[C@@](O)([C@@H](C)[C@H](O)[C@H](C)[C@H]2OC(=O)/C(OC)=C/C(C)=C/[C@@H](C)[C@@H](O)[C@@H](CC)[C@@H](O)[C@H](C)C/C(C)=C/C=C/[C@@H]2OC)C[C@@H](O[C@H]2C[C@@H](O)[C@H](OC(N)=O)[C@@H](C)O2)[C@@H]1C [Concanamycin A]
- NK-dependent iDCs apoptosis (iDCs): no effect

Molecule: CC1(C)[C@@H](O[C@H]2O[C@H](C(=O)O)[C@@H](O)[C@H](O)[C@H]2O[C@@H]2O[C@H](C(=O)O)[C@@H](O)[C@H](O)[C@H]2O)CC[C@]2(C)[C@H]3C(=O)C=C4[C@@H]5C[C@@](C)(C(=O)O)CC[C@]5(C)CC[C@@]4(C)[C@]3(C)CC[C@@H]12 [glycyrrhizin]
- HIV-1 replication (R5-HIV-1Ba-L; 24 h cultures of infected iDCs, absence of NK cells): decreased significantly HIV-1 replication
- HIV-1 production (p24 in supernatant) (R5-HIV-1Ba-L; infected DC cocultured with aNK cells): abrogated HIV-1 production
- HIV-1 production (p24 in supernatant) (R5-HIV-1Ba-L; infected DC cultured alone): abrogated HIV-1 production
- resistance of HIV-1-infected iDCs to aNK-induced apoptosis (HIV-1-infected iDCs; NK:DC ratio 5:1, inhibition assays): found dependent on HMGB1
- proportions of mature DCs (CD86bright HLA-DRbright) [1]: reduced the proportions of mature DCs

B1: rhs-TRAIL: recombinant human soluble TRAIL (protein, UniProt P50591 39-281, looked up)
extracellular domain: TNELKQMQDKYSKSGIACFLKEDDSYWDPNDEESMNSPCWQVKWQLRQLVRKMILRTSEETISTVQEKQQNISPLVRERGPQRVAAHITGTRGRSNTLSSPNSKNEKALGRKINSWESSRSGHSFLSNLHLRNGELVIHEKGFYYIYSQTYFRFQEEIKENTKNDKQMVQYIYKYTSYPDPILLMKSARNSCWSKDAEYGLYSIYQGGIFELKENDRIFVSVTNEHLIDMDHEASFFGAFLVG
modifications: extracellular domain
- TRAIL-induced apoptosis of HIV-1-infected DCs (HIV-1-infected iDCs; 24 h, 1-1000 ng/ml): still susceptible to TRAIL-induced apoptosis
